The values that follow come from PMC7749390, “Neuroprotective activity of Ulmus pumila L. in Alzheimer's disease in rats; role of neurotrophic factors” (Heliyon, 2020).

Converted amounts (≈) assume the structure as drawn. Read-outs that look alike come from different tables or passages of the source.

Assay [1] concerns the target T1, Electric-eel AChE (Electrophorus electricus, UniProt O42275).
T1 construct: purchased Sigma
As to the kind of experiment: biochemical. The note with it: for inhibition at 6.25 µM: read-out: % Inhibition 6.25μM; for inhibition at 12.5 µM: read-out: % Inhibition 12.5μM; for inhibition at 25 µM: read-out: % Inhibition 25μM; for inhibition at 50 µM: read-out: % Inhibition 50μM. As to the method: The reaction mixture contained 150 μL of (100 mM) sodium phosphate buffer (pH 8.0), 10 μL of 5,5-Dithiobis-(2-nitrobenzoic acid) (DTNB, Sigma), 10 μL of test-extract solution and 20 μL of acetyl cholinesterase solution (Electric-eel AChE- Sigma) were mixed and incubated for 15 min (37 °C) followed by the addition of 10ml of acetylthiocholine (Sigma) to initiate the reaction. Hydrolysis of acetylthiocholine was monitored by the formation of yellow 5-thio-2- nitrobenzoate anion measured by UV- Vis Shimadzu spectrophotometer-USA at a wavelength of 412 nm (15 min).
Statistical analysis: reactions were carried out in triplicates and the data were expressed as mean ± SEM. The inhibitory concentration (IC50) of the total extract and each compound, was graphically evaluated by a non-linear regression method using Graph Pad Prism (Ver. 5.0) software.

Assay [2] can be described thus: DPPH radical scavenging assay. (DPPH is a stable violet radical that fades when it is reduced.)
Assay [3] in a line: Superoxide anion scavenging assay.
[4] abbreviates: table, mean ± SEM, n = 3, read-out: IC50.

T1 sequence (O42275 24-633): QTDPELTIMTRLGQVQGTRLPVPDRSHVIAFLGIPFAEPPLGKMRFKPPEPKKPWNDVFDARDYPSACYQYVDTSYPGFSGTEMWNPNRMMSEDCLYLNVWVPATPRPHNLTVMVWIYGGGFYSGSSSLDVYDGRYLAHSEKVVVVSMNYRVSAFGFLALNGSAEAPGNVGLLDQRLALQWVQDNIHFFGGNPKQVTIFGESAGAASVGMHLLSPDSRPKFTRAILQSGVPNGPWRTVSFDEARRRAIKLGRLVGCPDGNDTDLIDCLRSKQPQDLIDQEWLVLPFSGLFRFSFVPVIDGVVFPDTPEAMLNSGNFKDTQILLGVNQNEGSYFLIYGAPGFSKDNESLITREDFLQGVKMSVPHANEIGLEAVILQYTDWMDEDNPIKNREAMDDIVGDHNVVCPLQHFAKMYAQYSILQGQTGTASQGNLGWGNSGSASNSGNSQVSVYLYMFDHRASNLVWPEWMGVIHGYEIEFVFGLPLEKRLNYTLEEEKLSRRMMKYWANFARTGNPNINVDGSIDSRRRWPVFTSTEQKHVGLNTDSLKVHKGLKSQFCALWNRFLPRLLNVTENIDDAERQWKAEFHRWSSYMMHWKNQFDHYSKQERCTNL

One may read the inhibition as how much of the control response was suppressed. For orientation: IC50 means the point on the concentration scale where inhibition reaches its midpoint. Take `Oc1cc(O)c2c(c1)OC(c1ccc(O)c(O)c1)C(O)C2` (single isomer, unassigned; (+)) [Compound 1, (+)-catechin]: in assay [1] (6.25μM, mean ± SEM, n = 3), the inhibition at 6.25 µM stood at 4.6 ± 1%. Moreover, the inhibition at 12.5 µM in assay [1] (12.5μM, mean ± SEM, n = 3) is 16.2 ± 2.4%. Further, the inhibition at 25 µM in assay [1] (25μM, mean ± SEM, n = 3) stood at 32.5 ± 2.5%. Besides, the inhibition at 50 µM in assay [1] (50μM, mean ± SEM, n = 3) was 70.3 ± 1.2%. Also, in assay [1] (setting [4]), the IC50 worked out at 33.61 ± 0.0295 µM.
For `Oc1cc(O)c2c(c1)O[C@H](c1ccc(O)c(O)c1)[C@H](O)C2` [Compound 2, (-)-epicatechin], in that order: 4.7 ± 0.7%, 19.6 ± 2.6%, 33.7 ± 1.2%, 73.6 ± 1.8% and 31.62 ± 0.04 µM.
`O=c1c(O[C@@H]2O[C@H](CO)[C@@H](O)[C@H](O)[C@H]2O)c(-c2ccc(O)cc2)oc2cc(O)cc(O)c12` [Compound 3, kaempferol 3-o-β-D-glucoside]: in assay [1], the IC50 was 29.03 ± 0.0155 µM, the inhibition at 6.25 µM is 3.7 ± 0.6%, the inhibition at 12.5 µM came to 14.6 ± 1.2% and the inhibition at 25 µM turned out to be 39.4 ± 0.8%. Also, the inhibition at 50 µM in assay [1] is 79.3 ± 0.8%.
For `O=c1c(O[C@@H]2O[C@H](CO)[C@@H](O)[C@H](O)[C@H]2O)c(-c2ccc(O)c(O)c2)oc2cc(O)cc(O)c12` [Compound 5, quercetin-3-O-β-D-gulucopyranoside], in that order: 31.72 ± 0.017 µM, 3.9 ± 1%, 14.4 ± 0.9%, 36.3 ± 1.6% and 72.8 ± 2.6%.
Turning to `CC1OC(OCC2OC(Oc3c(-c4ccc(O)cc4)oc4cc(O)cc(O)c4c3=O)C(O)C(O)C2O)C(O)C(O)C1O` (stereo not shown) [Compound 8, Kaempferol 3-o-robinobioside], the inhibition at 6.25 µM in assay [1] (6.25μM, mean ± SEM, n = 3) is 1.5 ± 0.8%. The inhibition at 12.5 µM in assay [1] (12.5μM, mean ± SEM, n = 3) came to 4.4 ± 0.9%. In addition, the inhibition at 25 µM in assay [1] (25μM, mean ± SEM, n = 3) was 19.9 ± 1.8%. In addition, in assay [1] (50μM, mean ± SEM, n = 3), the inhibition at 50 µM is 59.3 ± 2.9%. For the same molecule, the IC50 in assay [1] (setting [4]) was 43.13 ± 0.13 µM.
On to `O=C1O[C@H]([C@@H](O)CO)C(O)=C1O` [ascorbic acid], for which the “IC50, free radical scavenging activity (DPPH assay)” value in assay [2] is 5.6 µg/mL (≈ 31.8 µM).
In assay [1], `CN(CCCCCCN(C)C(=O)Oc1ccc[n+](C)c1)C(=O)Oc1ccc[n+](C)c1` [distigmine bromide, reference compound] had an IC50 of 26.83 ± 0.02 µM.
On to `O=c1c(O)c(-c2ccc(O)c(O)c2)oc2cc(O)cc(O)c12` [quercetin], for which the “IC50, superoxide anion radical inhibitory activity” value in assay [3] was found to be 45.3 ± 1.6 µg/mL (≈ 150 µM).
